Assay results: paper PMC8909834, “An Orally Bioavailable and Highly Efficacious Inhibitor of CDK9/FLT3 for the Treatment of Acute Myeloid Leukemia” (Cancers, 2022)

Legend:
[1] = test system: MV4-11 cells; assay: Cell cycle analysis (PI, flow cytometry); format: cell-based; conditions: 24 h
Description: (§1) Detection of apoptosis and cell cycle analysis. Detection of apoptosis and cell cycle analysis were performed as described previously. Cells (1 × 10^5 cells/mL) were seeded into a six-well plate (Corning) and incubated overnight at 37 °C, 5% CO2 prior to incubation with different concentrations of CDDD11-8 or control (0.1% final DMSO concentration) for 6, 24, or 72 h. For washout experiments, cells were incubated with compounds for 6 h, then washed three times with 1 × PBS interspersed with centrifugation at 300× g for 5 min to remove compound. After incubation at 37 °C under 5% CO2, cells were centrifuged at 300× g for 5 min to form a pellet, washed with PBS, and incubated with Annexin V/PI (Becton Dickenson, Franklin Lakes, NJ, USA) for 15 min in the dark. For cell cycle analysis, cells were fixed with 70% ethanol (v/v, 4 °C) and incubated in the dark with cell cycle staining solution (50 µg/mL PI, 0.1 mg/mL RNase A, 0.05% Triton X-100) for 1.5 h. Samples were analyzed using a CytoFlex flow cytometer (Beckman Coulter, Brea, CA, USA). Data were analyzed with CytExpert software version 2.1 (Beckman Coulter, Brea, CA, USA).

[2] = test system: MOLM-13 cells; assay: Cell cycle analysis (PI, flow cytometry); format: cell-based; conditions: MOLM-13, 1 µM, 24 h
Description: as §1

[3] = test system: other members of the CDK family; assay: ADP Glo kinase assay, CDK selectivity; format: biochemical, human; conditions: ratio of potency
Description: Kinase assay. The ADP Glo^TM kinase assay (Promega, Madison, WI, USA) was used to assess the inhibition by CDDD11-8 of CDKs 1, 2, 4, 6, 7, and 9, as well as the mutant isoforms of FLT3. The assays were performed in accord with the manufacturer’s protocol (Promega) as described previously. Briefly, serial three-fold dilutions of CDDD11-8 were prepared in 100% DMSO from a 2 mM stock solution, followed by 1:40 dilution into Milli-Q water. […] Luminescence was read using an EnVision® multilabel plate reader (PerkinElmer, Beaconsfield, UK), and half-maximum inhibitory concentrations (IC50) were calculated using a non-linear regression model with a variable slope, plotting log (inhibitor concentration) vs. response using the following formula: Ar%=Bottom+Top−Bottom/1+Inhibitor Concentration/IC50^HillSlope where the relative activity Ar (%) is the signal relative to the controls, IC50 is the half maximum concentration, Hillslope is the steepness of the dose-response curve, Top and Bottom are plateaus reflecting the maximum and minimum in responses on the Y-axis (GraphPad Prism version 7, San Diego, CA, USA). Ki values were calculated from the IC50 using the Cheng−Prusoff equation [32]. […]

[4] = Dissociation constant by PH metric assay; format: physicochemical
[5] = test system: MV4-11 cells; assay: Detection of apoptosis (annexin V/PI assay); format: cell-based; conditions: MV4-11, 1 µM
Description: as §1

[6] = test system: MOLM-13 cells; assay: Detection of apoptosis (annexin V/PI assay); format: cell-based; conditions: MOLM-13, 1 µM
Description: as §1

[7] = test system: THP-1 cells; assay: Detection of apoptosis (annexin V/PI assay); format: cell-based; conditions: apoptosis seen at 1.5 µM and 24 and 72 h
Description: as §1

SMILES: Cc1cnc(N[C@H]2CC[C@H](N)CC2)nc1-c1cnc2ccc(-c3ccccc3)cn12 [CDDD11-8]
- increase in the G1 population (increment) ([1]; MV4-11, 0.3 µM): 16%
- increase of sub-G1 cell population ([1]; MV4-11, 1 µM): greater than 40 fold
- increase of sub-G1 cell population [2]: greater than 40 fold
- selectivity for CDK9 over other members of the CDK family [3]: > 50 fold
- pKa ([4]; first of three values): 2.75
- pKa ([4]; second of three values): 4.95
- pKa ([4]; third of three values): 9.89
- apoptotic (Annexin V-positive) cells ([5]; 6 h): 51%
- apoptotic cells after washout ([5]; 6 h then 24 h without compound): 28%
- apoptotic (Annexin V-positive) cells ([6]; 6 h): 86%
- apoptotic cells after washout ([6]; 6 h then 24 h without compound): 61%
- induction of apoptosis [7]: less impact
